Where two headings read alike, the source gives them in different places. Marks after values point to notes of the source that are not given here.
Tests used:
testosterone = settings: for Serum Testosteron: mean ± SEM
Protocol: (§1) All of the above assays used for measuring serum estradiol, testosterone, and FSH levels were conducted as described by the manufacture.

estradiol = settings: for Serum Estradiol: mean ± SEM
Protocol: as §1

[1] = test system: follicle stimulating hormone (FSH); settings: for Serum FSH: mean ± SEM
Protocol: as §1

[2] = test system: 11β-deoxycorticosterone (DOC); settings: once daily DP13, 4-16 mg
From the text: The diet consisted of 70-80 mEq/day of sodium and 80-90 mEq/day of potassium. Blood samples were obtained daily at the time points indicated in the accompanying Tables for measurements of aldosterone, 11β-deoxycorticosterone (DOC), and potassium (K^+). All of the blood samples were obtained while the subjects were seated in a resting state.
DOC was quantified by an LC-MS/MS methodology. In preparation the steroids were extracted using the Absolute/DQStereo17 Kit from Biocrates Life Sciences AG, Innsbruck, Austria. The steroids were extracted and subjected to LC-MS/MS analysis according to the manufacturer's instructions. The triple quadrupole mass spectrometer (Waters 1-Class 2D UPLC Xevo TQ-S was calibrated using the standards provided in the kit. The assays were performed as provided by the manufacturers.

[3] = 4 mg once daily, Day 1 (08:00 h), pretreatment
[4] = 4 mg once daily, Day 2 (08:00 h)
[5] = 4 mg once daily, Day 9 (08:00 h)
[6] = 8 mg once daily, Day 1 (08:00 h), pretreatment
[7] = 8 mg once daily, Day 2 (08:00 h)
[8] = 8 mg once daily, Day 9 (08:00 h)
[9] = 16 mg once daily, Day 1 (08:00 h), pretreatment
[10] = 16 mg once daily, Day 2 (08:00 h)
[11] = 16 mg once daily, Day 9 (08:00 h)
[12] = once-daily oral dosing with 4, 8, or 16 mg

Serum Testosteron (testosterone; [3]): 17 ± 1.9 nM/L | Serum Testosteron (testosterone; [4]): 18 ± 1.9 nM/L | Serum Testosteron (testosterone; [5]): 15 ± 1.5^b nM/L | Serum Testosteron (testosterone; [6]): 18 ± 1.7 nM/L | Serum Testosteron (testosterone; [7]): 21 ± 6.2^a nM/L | Serum Testosteron (testosterone; [8]): 16 ± 1.4^a nM/L | Serum Testosteron (testosterone; [9]): 17 ± 1.9 nM/L | Serum Testosteron (testosterone; [10]): 20 ± 2.0^a nM/L | Serum Testosteron (testosterone; [11]): 17 ± 1.7 nM/L | Serum Estradiol (estradiol; [3]): 98 ± 10.2 pM/L | Serum Estradiol (estradiol; [4]): 92 ± 9.8 pM/L | Serum Estradiol (estradiol; [5]): 127 ± 8.3^a,b pM/L | Serum Estradiol (estradiol; [6]): 90.0 ± 9.5 pM/L | Serum Estradiol (estradiol; [7]): 90.0 ± 12.1 pM/L | Serum Estradiol (estradiol; [8]): 113 ± 8.3^a pM/L | Serum Estradiol (estradiol; [9]): 97.4 ± 15.3 pM/L | Serum Estradiol (estradiol; [10]): 97.0 ± 9.4 pM/L | Serum Estradiol (estradiol; [11]): 114.0 ± 8.5 pM/L | change of estradiol (estradiol; 4 and 8 mg doses after 8 days of treatment): slightly increased | effect on estradiol (estradiol; [12]): neither inhibited estradiol | Serum FSH [1, 3]: 2.7 ± 0.22 IU/L | Serum FSH [1, 4]: 2.7 ± 0.27 IU/L | Serum FSH [1, 5]: 2.7 ± 0.27 IU/L | Serum FSH [1, 6]: 4.3 ± 0.94 IU/L | Serum FSH [1, 7]: 4.1 ± 0.79 IU/L | Serum FSH [1, 8]: 4.1 ± 0.91 IU/L | Serum FSH [1, 9]: 2.6 ± 0.43 IU/L | Serum FSH [1, 10]: 2.5 ± 0.43 IU/L | Serum FSH [1, 11]: 2.5 ± 0.43 IU/L | highest individual DOC value [2]: 1.92 ng/mL | highest mean increase in DOC [2]: 0.52 ng/mL
SMILES: N#Cc1ccc([C@H]2CCCc3cncn32)cc1.O=P(O)(O)O [DP13, (R)-(+)-5-(p-cyanophenyl)-5,6,7,8-tetrahydroimidazolium[1,5-a]pyridine dihydrogen phosphate]
effect on circulating testosterone (testosterone; [12]): nor increased circulating testosterone or FSH | effect on circulating FSH [1, 12]: nor increased circulating testosterone or FSH

From patent US11992479B2, “R-fadrozole for use in the treatment of aldostonerism” (priority 2018, dated 2024)
